Experiments:
Assay type in all cases: in vivo
[1] = system: Summer wheat; test: Herbicidal post-emergence action with/without safener (Example H, container trials with cereals, greenhouse or outdoors)
Description: (§1) Herbicidal Post-Emergence Action
(§2) Seeds of monocotyledonous and dicotyledonous weed and crop plants are placed into sandy loam in wood fibre pots or in plastic pots, covered with soil and cultivated in a greenhouse, during the vegetation period also outdoors outside of the greenhouse, under good growth conditions. 2-3 weeks after sowing, the test plants are treated at the one- to three-leaf stage. The test compounds, formulated as wettable powders (WP) or emulsifiable concentrates (EC) are, in various dosages with a water application rate of 300 l/ha (converted), with wetting agent (0.2 to 0.3%) added, sprayed onto the plants and the surface of the soil. 3-4 weeks after the treatment of the test plants, the effect of the preparations is rated visually in comparison to untreated controls (herbicidal effect in per cent (%): 100%=the plants have died, 0% effect=like control plants).
(§3) If it is additionally to be tested as to whether safeners can improve the crop plant compatibility of test substances in the case of crop plants, the following options are used for applying the safener: • seeds of the crop plants are, before sowing, dressed with the safener substance (the amount of safener stated in per cent, based on the weight of the seed) • before the application of the test substances, the crop plants are sprayed with the safener at a certain application rate per hectare (usually 1 day before the application of the test substances) • the safener is applied together with the test substance as a tank mix (the amount of safener is stated in g/ha or as a ratio, based on the herbicide).
(§4) By comparing the effect of the test substances on crop plants without or with safener treatment, it is possible to assess the effect of the safener substance.

[2] = system: barley; test: as above
Description: as §1, §2, §3, §4

[3] = system: maize; test: Herbicidal post-emergence action with/without safener (Example H, container trials with maize in a greenhouse); conditions: 12.5 g of a.i./ha, without safener
Description: as §1
as §2, with “plants). […]” for “plants).”

[4] = greenhouse, 25 g of a.i./ha, without safener
[5] = greenhouse, 50 g of a.i./ha, without safener
[6] = greenhouse, 12.5 g of a.i./ha, without safener
[7] = greenhouse, 6.25 g of a.i./ha, without safener
[8] = greenhouse, 3.125 g of a.i./ha, without safener
[9] = outdoors, 12.5 g of a.i./ha, without safener (trial with mefenpyr 1 day prior)
[10] = outdoors, 25 g of a.i./ha, without safener (tank mix trial)
[11] = outdoors, 25 g of a.i./ha, without safener (trial with mefenpyr 1 day prior)
[12] = outdoors, 50 g of a.i./ha, without safener (tank mix trial)
[13] = outdoors, 50 g of a.i./ha, without safener (trial with mefenpyr 1 day prior)
[14] = outdoors, 100 g of a.i./ha, without safener (tank mix trial), listed as Ex. I-1-a-43
[15] = outdoors, 100 g of a.i./ha, without safener (trial with mefenpyr 1 day prior)
[16] = tank mix post-emergence, 20 g of a.i./ha, without safener
[17] = tank mix post-emergence, 80 g of a.i./ha, without safener
[18] = outdoors, 100 g of a.i./ha, without safener (tank mix trial), listed as Ex. I-1-a-1

For `CCCCOC1CCCC2(C1)NC(=O)C(c1c(Cl)cc(Br)cc1CC)=C2OC(=O)COC` (single isomer, unassigned) [Ex. I-1-b-8], the “Summer wheat observed (%)” value [1, 4] was 30%, the “Summer wheat observed (%)” value [1, 5] was 50% and the “Summer barley observed (%)” value [2, 4] was 30%. The “Summer barley observed (%)” value [2, 5] was 70%.

`CCCCOC1CCCC2(C1)NC(=O)C(c1c(Cl)cc(Br)cc1CC)=C2OC(=O)C(C)C` (single isomer, unassigned) [Ex. I-1-b-9] was tested, and the “Summer wheat observed (%)” value [1, 4] was 20%, the “Summer wheat observed (%)” value [1, 5] was 90% and the “Summer barley observed (%)” value [2, 4] was 30%. For the same compound, the “Summer barley observed (%)” value [2, 5] was 90%.

For `CCOC(=O)OC1=C(c2c(Br)cc(C)cc2CC)C(=O)NC12CCCC(OC)C2` (single isomer, unassigned) [Ex. I-1-c-10], the “Cecilia Mais observed (%)” value [3] was 40% and the “Summer wheat observed (%)” value [1, 6] was 60%.

With `CCCOC1CCCC2(C1)NC(=O)C(c1c(Br)cc(C)cc1CC)=C2O` (single isomer, unassigned) [Example I-1-a-12] the “Summer wheat observed (%)” value [1, 7] was 10%, the “Summer wheat observed (%)” value [1, 6] was 97% and the “Summer barley observed (%)” value [2, 8] was 30%. The “Summer barley observed (%)” value [2, 7] was 97% and the “Summer barley observed (%)” value [2, 6] was 99%.

With `CCc1cc(C)cc(Br)c1C1=C(O)C2(CCCC(OC)C2)NC1=O` (single isomer, unassigned) [Example I-1-a-14] the “Summer wheat observed (%)” value [1, 6] was 30%, the “Summer wheat observed (%)” value [1, 4] was 93% and the “Summer barley observed (%)” value [2, 6] was 30%. The “Summer barley observed (%)” value [2, 4] was 93%.

In the case of `CCOC1CCCC2(C1)NC(=O)C(c1c(Br)cc(C)cc1CC)=C2O` (single isomer, unassigned) [Example I-1-a-18], the “Summer wheat observed (%)” value [1, 8] was 30%, the “Summer wheat observed (%)” value [1, 7] was 40% and the “Summer wheat observed (%)” value [1, 6] was 95%. For the same compound, the “Summer barley observed (%)” value [2, 7] was 50% and the “Summer barley observed (%)” value [2, 6] was 93%.

For `CCCCOC1CCCC2(C1)NC(=O)C(c1c(C)cc(C)cc1C)=C2O` (single isomer, unassigned) [Example I-1-a-43], the “Summer wheat observed (%)” value [1, 9] was 30%, the “Summer wheat observed (%)” value [1, 10] was 40% and the “Summer wheat observed (%)” value [1, 11] was 60%. For the same compound, the “Summer wheat observed (%)” value [1, 12] was 50%, the “Summer wheat observed (%)” value [1, 13] was 15% and the “Summer wheat observed (%)” value [1, 14] was 60%. The “Summer wheat observed (%)” value [1, 15] was 30%, the “Summer barley observed (%)” value [2, 9] was 10% and the “Summer barley observed (%)” value [2, 10] was 40%. The “Summer barley observed (%)” value [2, 11] was 70%, the “Summer barley observed (%)” value [2, 12] was 50% and the “Summer barley observed (%)” value [2, 13] was 20%. For the same compound, the “Summer barley observed (%)” value [2, 14] was 60%, the “Summer barley observed (%)” value [2, 15] was 30% and the “Summer barley (Scarlett) observed (%)” value [2, 16] was 30%. The “Winter barley observed (%)” value [2, 16] was 20%, the “Summer barley (Baronesse) observed (%)” value [2, 17] was 30% and the “Winter barley observed (%)” value [2, 17] was 30%.

With `CCCCOC1CCCC2(C1)NC(=O)C(c1c(C)cc(C)cc1C)=C2O` (centres unmarked) [Example I-1-a-1] the “Summer wheat observed (%)” value [1, 18] was 35% and the “Summer barley observed (%)” value [2, 18] was 70%.

Source: patent US8410289B2, “Spirocyclic 3'-alkoxytetramic acids and-tetronic acids” (Bayer Cropscience AG, priority 2004, dated 2013)
